Reference: article PMC11501026, “L-Arginine and asymmetric dimethylarginine (ADMA) transport across the mouse blood-brain and blood-CSF barriers: Evidence of saturable transport at both interfaces and CNS to blood efflux” (PLOS ONE, 2024)
“And” between values parts separate entries of the source, which are not always exact repeats. Identical values can stand only once. Like-named read-outs stand apart in the source and are kept apart here.

Legend:
[1] = pH 7.4
Protocol: (§6) The lipophilicity of the radiolabelled test molecules was also measured by means of an octanol:saline partition coefficient. […] Centrifugation separated the hydrophobic (octanol) phase and hydrophilic (saline) phase and 100 μL samples in triplicate were taken for radioactive liquid scintillation counting on a Tricarb 2900TR liquid scintillation counter (Perkin-Elmer; Boston, MA, USA). The partition coefficient was calculated as the ratio of radioactivity in the octanol phase to the radioactivity in the aqueous phase.

[2] = system: [^3H]-ADMA transport across the blood-brain and blood-CSF barriers; assay: cross-inhibition, in situ perfusion: [^3H]-ADMA with 100 μM unlabelled L-arginine; type: in vivo, mouse; conditions: for inhibition of [^3H]-ADMA uptake: 100 μM unlabelled L-arginine; for inhibition at 100 µM: Mus musculus
Protocol: (§1) Self-inhibition experiments were also performed. […] Cross-competition experiments were also performed.
(§2) The percentage change in the RTissue uptake values achieved in the absence or presence of an unlabelled inhibitor can be calculated by means of Eq 4.
(§3) %change=RTissue−RInhibition/RTissue×100 Eq 4
(§4) We define RInhibition as the RTissue uptake in the presence of an inhibitor in the artificial plasma.
(§5) A decrease in the uptake of radiolabelled solute in the presence of unlabelled inhibitor is indicative of a saturable influx transport system. Conversely, an increase in the uptake of radiolabelled solute in the presence of unlabelled inhibitor is indicative of a saturable efflux transport system.

[3] = system: CAT1; conditions: HEK293 overexpressing CAT1; read-out: IC50, inhibition of CAT1-mediated cellular uptake of ADMA; cited from earlier work
[4] = system: [^3H]-arginine transport across the blood-brain and blood-CSF barriers; assay: self-inhibition, in situ perfusion: [^3H]-arginine with 100 μM unlabelled L-arginine; type: in vivo, mouse
Protocol: as §1, §2, §3, §4, §5

[5] = 500 μM; isolated incubated rat choroid plexus; cited from earlier work
[6] = in situ brain/choroid plexus perfusion: CNS uptake of [^3H]-arginine, [^3H]-ADMA and [^14C]-sucrose (multiple-time and single-time uptake analysis); conditions: for Kin: single-time point analysis, corrected for [^14C]-sucrose; for Kin / [^3H]-ADMA/ [^3H]-arginine, rate of uptake: 10-minute perfusion; for ability to cross the blood-brain and blood-CSF barriers: in situ perfusion; for Kp at 30 min, […] / Kp at […], […]: male, BALB/c, mouse
Protocol: All animals used in procedures were adult male BALB/c mice (between 23 g and 25 g) sourced from Harlan Laboratories, Oxon, UK, unless otherwise stated.
Animals were weighed immediately before the administration of the anaesthetic to ensure correct dosage. Domitor® (medetomidine hydrochloride) and Vetalar® (ketamine) were both purchased from Harlan Laboratories (Cambridge, UK). All animals were terminally anaesthetised (2 mg/kg Domitor® and 150 mg/kg Vetalar® injected intraperitoneally), and a lack of self-righting and paw-withdrawal reflexes (as surrogate indicators of consciousness) thoroughly checked prior to and during all procedures. If needed, additional anaesthetic was administered via the same route. […] At the end of the in situ brain perfusion procedure the animal was killed by decapitated under non-recovery anaesthesia. Animals were heparinised with 100 units heparin (in 0.9% m/v NaCl(aq), Harlan Laboratories; Oxon, UK), administered via the intraperitoneal route prior to surgery.
The in situ brain/choroid plexus perfusion method is designed to directly perfuse the brain with artificial plasma via a cannula placed in the heart. Artificial plasma is prepared to mimic the ionic composition of blood, and transporter inhibitors can be added in known concentrations and delivered to the brain for defined periods of time.
The left ventricle of the heart was cannulated with a 25G x 10 mm butterfly-winged needle connected to the perfusion circuit. […] The right atrium of the heart was sectioned to allow outflow of the artificial plasma. […] Radiolabelled and unlabelled test molecules were infused into the inflowing artificial plasma for periods up to 30 minutes.
At the set perfusion time a CSF sample was taken by inserting a pulled glass micropipette connected to silicon tubing and a syringe into the cisterna magna. Gentle suction was applied, and CSF was withdrawn. Only clear CSF samples were processed and taken for analysis. Samples contaminated with blood were discarded. The animal was then decapitated and the brain removed. Specific brain samples including the circumventricular organs (CVOs) were taken using a Leica S4E L2 stereomicroscope (Leica; Buckinghamshire, UK). The brain samples included the frontal cortex, caudate nucleus, occipital cortex, hippocampus, hypothalamus, thalamus, pons and cerebellum. The CVOs included the choroid plexus, pituitary gland and pineal gland.
All samples (brain regions, capillary depletion brain homogenate, pellet and supernatant, CVOs, CSF and plasma samples) were solubilised in 0.5 mL tissue solubiliser (Solvable; Perkin-Elmer; Boston, MA, USA). After incubating the samples at room temperature for 48 h, 4 mL scintillation fluid (Lumasafe®; Perkin-Elmer; Boston, MA, USA) was added to each before vigorous vortexing.

[7] = capillary depletion analysis after in situ brain perfusion; type: in vivo, mouse; conditions: 10-minute perfusion; for Kin: single-time point analysis, corrected for [^14C]-sucrose
Protocol: The microvasculature within a sample of brain tissue can be separated from the brain parenchyma using capillary depletion analysis. Following perfusion, the remaining brain tissue after microdissection of the regions described above (typically 200–300 mg) underwent capillary depletion following a method modified for mouse. […]

[8] = system: hCMEC/D3 cells; conditions: [^3H]-arginine 7 nM; hCMEC/D3 accumulation; cited from earlier work
[9] = octanol:saline partition coefficient; conditions: pH 7.4; for octanol-saline partition coefficient: mean ± SEM of 3 tubes
Protocol: as §6

[10] = 100μM unlabelled L-arginine, CSF, 10 minutes

N=C(N)NCCC[C@H](N)C(=O)O [L-arginine]
octanol-saline partition coefficient [1]: 0.00149±0.00016 | inhibition of [^3H]-ADMA uptake ([2]; CSF, pineal gland, choroid plexus and pituitary gland, 10 minutes): up to 78.6% | effect on [^3H]-ADMA distribution [2, 10]: no effect | inhibition of [^3H]-ADMA uptake ([2]; brain regions, 10 minutes): up to 80.4% | inhibition at 100 µM ([2]; read-out: inhibition of [^3H]-ADMA distribution): ≤ 80.8% | IC50 [3]: 227 µM | inhibition of [^3H]-arginine uptake [4, 10]: 62.2% | inhibition of [^3H]-arginine uptake ([4]; 100μM unlabelled arginine, average of capillary depletion samples, 10 minutes): approximately 56% | inhibition of [^3H]-arginine uptake ([4]; 100μM unlabelled arginine, average of eight brain regions, 10-minute perfusion): approximately 67% | inhibition of [^3H]-arginine distribution ([4]; 100μM unlabelled arginine, choroid plexus, 10 minutes): 57.3% | inhibition of [^3H]-arginine distribution ([4]; 100μM unlabelled arginine, pineal gland, 10 minutes): 39.4% | inhibition of [^3H]-arginine distribution ([4]; 100μM unlabelled arginine, pituitary gland, 10 minutes): 48.1%

CNC(=N)NCCC[C@H](N)C(=O)O [N^G-methyl-L-arginine]
effect on [^3H]-arginine uptake [5]: can be inhibited

N=C(N)NCCC[C@H](N)C(=O)O [[^3H]-arginine, reference compound]
Kin ([6]; CSF): 1.08 ± 0.24 µL/min/g | Kin ([6]; Caudate nucleus): 5.40 ± 0.67 µL/min/g | Kin ([6]; Cerebellum): 5.10 ± 0.50 µL/min/g | Kin ([6]; Frontal Cortex): 5.84 ± 0.86 µL/min/g | Kin ([6]; Hippocampus): 4.72 ± 0.56 µL/min/g | Kin ([6]; Hypothalamus): 7.26 ± 1.76 µL/min/g | Kin ([6]; Occipital Cortex): 4.98 ± 0.72 µL/min/g | Kin ([6]; Pons): 5.58 ± 0.97 µL/min/g | Kin ([6]; Thalamus): 5.87 ± 1.07 µL/min/g | ability to cross the BBB in situ relative to [^3H]-ADMA ([6]; eight brain regions and capillary depletion samples): more than two-fold in most cases | ability to cross the blood-brain and blood-CSF barriers [6]: can cross the blood-brain barrier (BBB) and the blood-CSF barrier | Kp at 30 min, […] ([6]; CSF): 1.2 ± 0.251 | Kp at […], […] ([6]; CSF): 0.0441 ± 0.0141 | Kp at 30 min, […] ([6]; frontal cortex): 1.77 ± 0.316 | Kp at […], […] ([6]; frontal cortex): 0.29 ± 0.0403 | Kp at 30 min, […] ([6]; pons): ~1.85 | Vi relative to [^14C]-sucrose space in the same experiment ([6]; multiple-time uptake analysis over 30 minutes, data not shown): up to 13 fold | Kin ([7]; Homogenate): 3.97 ± 0.67 µL/min/g | Kin ([7]; Pellet): 0.70 ± 0.10 µL/min/g | Kin ([7]; Supernatant): 2.35 ± 0.42 µL/min/g | ability to cross brain capillary endothelial cell membranes compared to [^3H]-ADMA (38 nM) [8]: more than -three to -five-fold

N=C(N)NCCC[C@H](N)C(=O)O [arginine]
inhibition at 100 µM ([2]; read-out: inhibition of [^3H]-ADMA (62.5 nM) transport): 64.3 to 80.8%

[^3H]-ADMA [reference compound]
[^3H]-ADMA/ [^3H]-arginine, rate of uptake ([6]; CSF): 249.5% | uptake into the CSF (CSF to plasma) ([6]; CSF, […], data uncorrected for [^14C]-sucrose): approximately 4% | Kin ([6]; CSF): 2.70 ± 0.90 µL/min/g | [^3H]-ADMA/ [^3H]-arginine, rate of uptake ([6]; Caudate nucleus): 44.6% | Kin ([6]; Caudate nucleus): 2.41 ± 0.29 µL/min/g | [^3H]-ADMA/ [^3H]-arginine, rate of uptake ([6]; Cerebellum): 31.7% | Kin ([6]; Cerebellum): 1.62 ± 0.19 µL/min/g | [^3H]-ADMA/ [^3H]-arginine, rate of uptake ([6]; Frontal Cortex): 42.7% | Kin ([6]; Frontal Cortex): 2.49 ± 0.35 µL/min/g | [^3H]-ADMA/ [^3H]-arginine, rate of uptake ([6]; Hippocampus): 46.1% | Kin ([6]; Hippocampus): 2.17 ± 0.17 µL/min/g | [^3H]-ADMA/ [^3H]-arginine, rate of uptake ([6]; Hypothalamus): 41.9% | Kin ([6]; Hypothalamus): 3.04 ± 0.30 µL/min/g | [^3H]-ADMA/ [^3H]-arginine, rate of uptake ([6]; Occipital Cortex): 45.2% | Kin ([6]; Occipital Cortex): 2.25 ± 0.16 µL/min/g | [^3H]-ADMA/ [^3H]-arginine, rate of uptake ([6]; Pons): 44.2% | Kin ([6]; Pons): 2.46 ± 0.34 µL/min/g | [^3H]-ADMA/ [^3H]-arginine, rate of uptake ([6]; Thalamus): 35.8% | Kin ([6]; Thalamus): 2.10 ± 0.17 µL/min/g | distribution into the choroid plexus (tissue to plasma) ([6]; 30 minutes): approximately 40% | distribution into the choroid plexus (tissue to plasma) ([6]; peak at 10 minutes): approximately 240% | distribution (RBRAIN, tissue to plasma) corrected for [^14C]-sucrose ([6]; frontal cortex, 20 minutes): 27.64±4.30% | distribution (RBRAIN, tissue to plasma) corrected for [^14C]-sucrose ([6]; frontal cortex, 30 minutes): 10.41±2.77% | distribution (RBRAIN, tissue to plasma) corrected for [^14C]-sucrose ([6]; frontal cortex, […]): 9.86±1.43% | ability to cross the blood-brain and blood-CSF barriers [6]: can cross the blood-brain barrier (BBB) and the blood-CSF barrier | CNS-to-blood efflux ([6]; multiple-time uptake studies, loss of linearity): significant CNS-to-blood efflux | [^3H]-ADMA/ [^3H]-arginine, rate of uptake ([7]; Homogenate): 31.9% | Kin ([7]; Homogenate): 1.27 ± 0.56 µL/min/g | [^3H]-ADMA/ [^3H]-arginine, rate of uptake ([7]; Pellet): 11.4% | Kin ([7]; Pellet): 0.08 ± 0.20 µL/min/g | [^3H]-ADMA/ [^3H]-arginine, rate of uptake ([7]; Supernatant): 36.6% | Kin ([7]; Supernatant): 0.86 ± 0.16 µL/min/g | octanol-saline partition coefficient, single tube ([9]; Tube A, B or C): 0.00217 and 0.00237 and 0.00225 | octanol-saline partition coefficient [9]: 0.00226±0.00006 | octanol-saline partition coefficient ([9]; listed as 3H ADMA): 0.00226
